{"source": "ChEMBL document CHEMBL1201862", "about": "“PubChem BioAssay data set” (2004)", "test_in_all_cases": "NCI-60 cell line screen, 48 h", "key": {"A549": {"system": "A549"}, "MOLT-4": {"system": "MOLT-4"}, "OVCAR-3": {"system": "OVCAR-3"}, "SF-295": {"system": "SF-295"}, "UACC-257": {"system": "UACC-257"}, "CCRF-CEM": {"system": "CCRF-CEM"}, "K562": {"system": "K562"}, "COLO 205": {"system": "COLO 205"}, "MDA-MB-231": {"system": "MDA-MB-231"}, "SNB-19": {"system": "SNB-19"}, "HL-60": {"system": "HL-60"}, "ACHN": {"system": "ACHN"}, "NCI-H226": {"system": "NCI-H226"}, "IGROV-1": {"system": "IGROV-1"}, "HCT-15": {"system": "HCT-15"}, "T47D": {"system": "T47D"}, "CAKI-1": {"system": "CAKI-1"}, "NCI-H23": {"system": "NCI-H23"}, "RPMI-8226": {"system": "RPMI-8226"}, "MDA-N": {"system": "MDA-N"}}, "note": "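Test compounds were applied to cells in 96-well plates for 48 hours at 5 doses. Here, GI50 denotes the concentration required for 50% inhibition of growth.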 The source made the active and inactive calls. Rule as the data show it: active = GI50 up to about 1.1 µM and inactive = higher."}
{"smiles": "COc1ccc(C(c2cc(OC)c(OC)c(OC)c2)N2C(=O)CCC2C(=O)O)cc1", "note": "(stereo not given)", "values": [{"measurement": "GI50", "setting": "A549", "result": "40.2 µM (inactive)"}, {"measurement": "GI50", "setting": "MOLT-4", "result": "72.6 µM (inactive)"}, {"measurement": "GI50", "setting": "OVCAR-3", "result": "33.8 µM (inactive)"}, {"measurement": "GI50", "setting": "SF-295", "result": "24.3 µM (inactive)"}, {"measurement": "GI50", "setting": "UACC-257", "result": "> 100 µM (inactive)"}, {"measurement": "GI50", "setting": "CCRF-CEM", "result": "38.8 µM (inactive)"}, {"measurement": "GI50", "setting": "K562", "result": "43.8 µM (inactive)"}, {"measurement": "GI50", "setting": "COLO 205", "result": "41 µM (inactive)"}, {"measurement": "GI50", "setting": "MDA-MB-231", "result": "> 100 µM (inactive)"}, {"measurement": "GI50", "setting": "SNB-19", "result": "44.9 µM (inactive)"}, {"measurement": "GI50", "setting": "HL-60", "result": "32 µM (inactive)"}, {"measurement": "GI50", "setting": "ACHN", "result": "89.3 µM (inactive)"}, {"measurement": "GI50", "setting": "NCI-H226", "result": "74.3 µM (inactive)"}, {"measurement": "GI50", "setting": "IGROV-1", "result": "84.5 µM (inactive)"}, {"measurement": "GI50", "setting": "HCT-15", "result": 43.9, "unit": "µM"}, {"measurement": "GI50", "setting": "T47D", "result": "47.2 µM (inactive)"}, {"measurement": "GI50", "setting": "CAKI-1", "result": "79.6 µM (inactive)"}, {"measurement": "GI50", "setting": "NCI-H23", "result": "82.8 µM (inactive)"}, {"measurement": "GI50", "setting": "RPMI-8226", "result": "49.8 µM (inactive)"}, {"measurement": "GI50", "setting": "MDA-N", "result": "21.1 µM (inactive)"}]}
{"smiles": "Nc1c2ccccc2nc2ccc(C(=O)Nc3ccc(S(N)(=O)=O)cc3)cc12", "values": [{"measurement": "GI50", "setting": "A549", "result": "> 100 µM (inactive)"}, {"measurement": "GI50", "setting": "MOLT-4", "result": "> 100 µM (inactive)"}, {"measurement": "GI50", "setting": "OVCAR-3", "result": "> 100 µM (inactive)"}, {"measurement": "GI50", "setting": "SF-295", "result": "> 100 µM (inactive)"}, {"measurement": "GI50", "setting": "UACC-257", "result": "> 100 µM (inactive)"}, {"measurement": "GI50", "setting": "CCRF-CEM", "result": "> 100 µM (inactive)"}, {"measurement": "GI50", "setting": "K562", "result": "> 100 µM (inactive)"}, {"measurement": "GI50", "setting": "COLO 205", "result": "> 100 µM (inactive)"}, {"measurement": "GI50", "setting": "MDA-MB-231", "result": "> 100 µM (inactive)"}, {"measurement": "GI50", "setting": "SNB-19", "result": "> 100 µM (inactive)"}, {"measurement": "GI50", "setting": "HL-60", "result": "> 100 µM (inactive)"}, {"measurement": "GI50", "setting": "ACHN", "result": "> 100 µM (inactive)"}, {"measurement": "GI50", "setting": "NCI-H226", "result": "> 100 µM (inactive)"}, {"measurement": "GI50", "setting": "IGROV-1", "result": "> 100 µM (inactive)"}, {"measurement": "GI50", "setting": "HCT-15", "result": "> 100", "unit": "µM"}, {"measurement": "GI50", "setting": "T47D", "result": "> 100 µM (inactive)"}, {"measurement": "GI50", "setting": "CAKI-1", "result": "> 100 µM (inactive)"}, {"measurement": "GI50", "setting": "NCI-H23", "result": "> 100 µM (inactive)"}, {"measurement": "GI50", "setting": "RPMI-8226", "result": "> 100 µM (inactive)"}, {"measurement": "GI50", "setting": "MDA-N", "result": "> 100 µM (inactive)"}]}
